Experimental data from EP2711367A1, “New spiroepoxide tetrahydrobenzo-triazoles and -imidazoles and their use as MetAP-II inhibitors” (Deutsches Krebsforschungszentrum, priority 2012, dated 2014).
Where two headings read alike, the source gives them in different places.

What was measured:
Assay in all cases: MetAP inhibitory activity, Met-Gly-Met-Met substrate, HPLC detection of Gly-Met-Met
E. coli MetAP = E. coli MetAP (Escherichia coli, UniProt P0AE18); format: biochemical; details: for E. Coli % inhibition: single concentration: inhibitor 25 µM, enzyme 50 nM, 20 minutes substrate incubation at 37 °C; for inhibition at 25 µM: read-out: E. Coli % inhibition
E. coli MetAP, sequence (P0AE18 whole entry): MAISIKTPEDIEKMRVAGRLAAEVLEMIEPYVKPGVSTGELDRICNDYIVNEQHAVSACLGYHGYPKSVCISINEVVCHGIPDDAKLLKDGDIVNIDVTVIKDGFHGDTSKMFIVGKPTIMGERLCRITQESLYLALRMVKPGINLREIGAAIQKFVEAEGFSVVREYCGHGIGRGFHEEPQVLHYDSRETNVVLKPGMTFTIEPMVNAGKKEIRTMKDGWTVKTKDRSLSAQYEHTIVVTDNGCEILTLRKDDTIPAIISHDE
Method: (§1) The below protocol describes the measurement of the inhibitory activity of the compounds of the present invention by using E. coli MetAP, hsMetAP-I, and hsMetAP-II.
(§2) Inhibition activity of compounds was studied using the tetrapeptide substrate Met-Gly-Met-Met (Bachem) followed by HPLC analysis of the product Gly-Met-Met. The assay was performed in 96 well plates (Greiner) at a total reaction volume of 100 µl. […] A positive control with DMSO solution instead of inhibitor at the corresponding concentration was prepared. Then the substrate Met-Gly-Met-Met was added to a final concentration of 400 µM. After an incubation period of 15 minutes (HsMetAP-I), 20 minutes (EcMetAP) or 60 minutes (HsMetAP-II) at 37 °C, the enzyme reaction was stopped by adding 10 µl 4 % trifluoroacetic acid. The plate was centrifuged at 1000 x g for 10 minutes.
(§3) Detection of the product Gly-Met-Met was performed by HPLC (Jasco), and typically using the following, or equivalent conditions: C18 column (Dr. Maisch, ReproSil-Pur® 120 ODS-3, 3 µm, 50 x 2 mm). 80 µl of sample were applied on the column and eluted with mobile phase A (water and 0.1 % trifluoroacetic acid, filtered, degassed) and B (acetonitrile and 0.1 % trifluoroacetic acid, degassed) over 8 minutes.
(§4) Percentage inhibition was calculated as the relation of Gly-Met-Met amount resulting in inhibited and uninhibited enzyme reaction (positive control). […] The values were determined in relation to positive controls with equal DMSO contents. The inhibition values for the varying concentrations of inhibitor were then fitted to a logarithmic dose-response curve and the IC50 values were calculated from the equation thus obtained.

hsMetAP-I = hsMetAP-I (Homo sapiens, UniProt P53582); format: biochemical, hs; details: for inhibition at 25 µM: read-out: hsMetAP-I % inhibition
Method: as §1, §2, §3, §4

hsMetAP-II = hsMetAP-II (Homo sapiens, UniProt P50579); format: biochemical, hs
hsMetAP-II, sequence (P50579 whole entry): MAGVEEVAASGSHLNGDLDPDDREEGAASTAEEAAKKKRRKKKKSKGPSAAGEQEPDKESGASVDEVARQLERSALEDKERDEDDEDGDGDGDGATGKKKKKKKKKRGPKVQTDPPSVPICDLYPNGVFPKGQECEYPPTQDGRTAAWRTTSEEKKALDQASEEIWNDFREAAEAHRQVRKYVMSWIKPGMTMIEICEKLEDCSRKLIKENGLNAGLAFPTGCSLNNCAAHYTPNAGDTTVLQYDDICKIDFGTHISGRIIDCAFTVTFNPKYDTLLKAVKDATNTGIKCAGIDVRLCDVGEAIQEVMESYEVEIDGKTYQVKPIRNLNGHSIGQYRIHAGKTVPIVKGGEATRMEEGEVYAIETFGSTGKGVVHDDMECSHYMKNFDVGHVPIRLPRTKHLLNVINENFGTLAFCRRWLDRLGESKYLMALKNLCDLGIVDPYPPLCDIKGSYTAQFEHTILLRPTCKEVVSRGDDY
Method: as §1
Inhibition activity of compounds was studied using the tetrapeptide substrate Met-Gly-Met-Met (Bachem) followed by HPLC analysis of the product Gly-Met-Met. The assay was performed in 96 well plates (Greiner) at a total reaction volume of 100 µl. […] Then the substrate Met-Gly-Met-Met was added to a final concentration of 400 µM. After an incubation period of 15 minutes (HsMetAP-I), 20 minutes (EcMetAP) or 60 minutes (HsMetAP-II) at 37 °C, the enzyme reaction was stopped by adding 10 µl 4 % trifluoroacetic acid. The plate was centrifuged at 1000 x g for 10 minutes.
as §3, §4

[1] = single concentration: inhibitor 25 µM, enzyme 50 nM, 15 minutes substrate incubation at 37 °C
[2] = single concentration: inhibitor 25 µM, enzyme 50 nM, 60 minutes substrate incubation at 37 °C
[3] = single concentration: inhibitor 25 µM, enzyme 50 nM, 60 minutes substrate incubation at 37 °C, read-out: hsMetAP-II % inhibition
[4] = enzyme 50 nM, 400 µM Met-Gly-Met-Met, 60 minutes at 37 °C, read-out: hsMetAP-II IC50
[5] = read-out: hsMetAP-II % inhibition, single concentration: inhibitor 25 µM, enzyme 50 nM, 60 minutes substrate incubation at 37 °C

| Structure (SMILES) | E. Coli % inhibition (E. coli MetAP) | hsMetAP-I % inhibition (hsMetAP-I; [1]) | hsMetAP-II % inhibition (hsMetAP-II; [2]) | inhibition at 25 µM (E. coli MetAP) [%] | inhibition at 25 µM (hsMetAP-II; [3]) [%] | inhibition at 25 µM (hsMetAP-II; [5]) [%] | further results |
| --- | --- | --- | --- | --- | --- | --- | --- |
| Cn1cnc2c1C1(CCC2=O)CO1 (racemic) [JL-II-136-A] | Inactive | Inactive | Inactive | – | – | – | – |
| CC(C)CCn1cnc2c1C1(CCC2=O)CO1 (centres unmarked) [JL-II-115-A] | – | Inactive | Inactive | 25 ± 8 | – | – | – |
| CCn1nnc2c1C1(CCC2=O)CO1 (centres unmarked) [CJ-II-007] | – | Inactive | Inactive | 22 ± 5 | – | – | – |
| Cn1nnc2c1C1(CCC2=O)CO1 (racemic) [CJ-II-011] | – | – | Inactive | 20 ± 2 | – | – | inhibition at 25 µM (hsMetAP-I; [1]): 14 ± 7% |
| O=C1CCC2(CO2)c2c1ncn2Cc1ccccc1 (centres unmarked) [JL-III-084-C] | Inactive | Inactive | – | – | 24 ± 1 | – | – |
| O=C1CCC2(CO2)c2c1nnn2Cc1ccc2ccccc2c1 (centres unmarked) [HHS-I-020-C] | – | Inactive | – | 24 ± 8 | 84.1 ± 3.2 | – | IC50 (hsMetAP-II; [4]): 2.7 ± 0.1 µM |
| Cc1ccccc1Cn1nnc2c1C1(CCC2=O)CO1 (centres unmarked) [BK-I-181-B] | Inactive | Inactive | – | – | 100 | – | IC50 (hsMetAP-II; [4]): 5.1 ± 2.9 µM |
| O=C(O[C@@H]1CC[C@@]2(CO2)c2c1nnn2Cc1ccccc1)c1ccccc1 (racemic) [JL-III-147-B] | – | Inactive | – | 36 ± 11 | – | 59 ± 2 | IC50 (hsMetAP-II): 19.1 ± 9 µM |
| CCn1cnc2c1C1(CCC2=O)CO1 (centres unmarked) [JL-II-137-A] | Inactive | Inactive | Inactive | – | – | – | – |
| CC(C)Cn1cnc2c1C1(CCC2=O)CO1 (centres unmarked) [JL-II-120-B] | Inactive | Inactive | – | – | 12 ± 6 | – | – |
| CCCn1cnc2c1C1(CCC2=O)CO1 (racemic) [JL-II-116-A] | Inactive | Inactive | Inactive | – | – | – | – |
| O=C1CCC2(CO2)c2c1nnn2Cc1ccccc1 (centres unmarked) [HHS-I-027-B] | Inactive | Inactive | – | – | 64.5 ± 0.1 | – | IC50 (hsMetAP-II; [4]): 13.7 ± 3.4 µM |
| CCCCCCCCn1nnc2c1C1(CCC2=O)CO1 (centres unmarked) [CJ-II-010] | – | – | – | 14 ± 7 | 50 ± 2 | – | inhibition at 25 µM (hsMetAP-I; [1]): 12.1 ± 1.5% |
| CC(C)c1ccc(Cn2nnc3c2C2(CCC3=O)CO2)cc1 (centres unmarked) [JL-III-138-A] | – | – | – | 50 ± 6 | 84 ± 3 | – | inhibition at 25 µM (hsMetAP-I; [1]): 16 ± 2%; IC50 (hsMetAP-II; [4]): 5.5 ± 3 µM |
| CC(C)c1ccc(Cn2nnc3c2[C@]2(CC[C@H]3OC(=O)c3ccccc3)CO2)cc1 (racemic) [UWU-XII-036-A] | – | Inactive | – | 20 ± 8 | – | 59 ± 5 | IC50 (hsMetAP-II): 4.7 ± 0.3 µM |
| O=C(O[C@@H]1CC[C@@]2(CO2)c2c1nnn2Cc1ccc2ccccc2c1)c1ccccc1 [JL-III-132-D] | Inactive | Inactive | – | – | 15 ± 5 | – | – |
| COc1ccc(Cn2nnc3c2C2(CCC3OC(=O)C=Cc3cc(OC)c(OC)c(OC)c3)CO2)cc1 (racemic) [UWU-XII-035-A] | Inactive | Inactive | – | – | – | 94 ± 4 | inhibitory effect on MetAP-II (in words) (hsMetAP-II): good inhibitory effect; IC50 (hsMetAP-II; read-out: hsMetAP-II IC50, enzyme 50 nM, 400 µM Met-Gly-Met-Met, 60 minutes at 37 °C): 0.5 ± 1 µM |
| O=C(O[C@@H]1CC[C@]2(CO2)c2c1nnn2Cc1ccc2ccccc2c1)c1ccccc1 (racemic) [JL-III-132-C] | – | Inactive | – | 22 ± 7 | – | 63 ± 5 | IC50 (hsMetAP-II): 3.7 ± 0.3 µM |
| O=C(O[C@@H]1CC[C@]2(CO2)c2c1nnn2Cc1ccccc1)c1ccccc1 (racemic) [JL-III-147-A] | – | – | – | 45 ± 7 | – | 93.3 ± 2.1 | inhibition at 25 µM (hsMetAP-I): 15 ± 1%; IC50 (hsMetAP-II): 1.3 ± 0.01 µM |
| COc1ccc(Cn2nnc3c2[C@@]2(CC[C@H]3OC(=O)/C=C/c3cc(OC)c(OC)c(OC)c3)CO2)cc1 (racemic) [UWU-II-035-C] | Inactive | Inactive | – | – | – | 85 ± 11 | IC50 (hsMetAP-II): 2.02 ± 0.03 µM |
